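A five-concentration, 48-hour dose response in 96-well plates underlies each endpoint, interpolated linearly between surrounding concentrations. GI50: concentration for 50% inhibition of growth. At the TGI there is no net growth.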
Tests used:
Assay in all cases: inhibition of tumour cell growth, NCI panel, 48 h
MDA-MB-231 breast = test system: MDA-MB-231 breast
KM12 colon = test system: KM12 colon
NCI-H23 lung = test system: NCI-H23 lung
CCRF-CEM leukemia = test system: CCRF-CEM leukemia
NCI/ADR-RES ovarian = test system: NCI/ADR-RES ovarian
CAKI-1 renal = test system: CAKI-1 renal
SF-295 CNS = test system: SF-295 CNS
DU-145 prostate = test system: DU-145 prostate
SR leukemia = test system: SR leukemia
HS 578T breast = test system: HS 578T breast
MALME-3M melanoma = test system: MALME-3M melanoma
SK-MEL-28 melanoma = test system: SK-MEL-28 melanoma
UACC-62 melanoma = test system: UACC-62 melanoma
T-47D breast = test system: T-47D breast
SN12C renal = test system: SN12C renal
SF-539 CNS = test system: SF-539 CNS
M14 melanoma = test system: M14 melanoma
SNB-19 CNS = test system: SNB-19 CNS
SK-OV-3 ovarian = test system: SK-OV-3 ovarian
NCI-H522 lung = test system: NCI-H522 lung
K-562 leukemia = test system: K-562 leukemia
786-0 renal = test system: 786-0 renal
TK-10 renal = test system: TK-10 renal
UACC-257 melanoma = test system: UACC-257 melanoma
U251 CNS = test system: U251 CNS
EKVX NSCLC = test system: EKVX NSCLC
BT-549 breast = test system: BT-549 breast
SNB-75 CNS = test system: SNB-75 CNS
HOP-62 NSCLC = test system: HOP-62 NSCLC
NCI-H460 lung = test system: NCI-H460 lung
IGROV1 ovarian = test system: IGROV1 ovarian
RXF 393 renal = test system: RXF 393 renal
SW-620 colon = test system: SW-620 colon
A549 NSCLC = test system: A549 NSCLC
OVCAR-8 ovarian = test system: OVCAR-8 ovarian
OVCAR-5 ovarian = test system: OVCAR-5 ovarian
RPMI-8226 leukemia = test system: RPMI-8226 leukemia
ACHN renal = test system: ACHN renal
SK-MEL-2 melanoma = test system: SK-MEL-2 melanoma
HOP-92 NSCLC = test system: HOP-92 NSCLC
SF-268 CNS = test system: SF-268 CNS
HCT-15 colon = test system: HCT-15 colon
HL-60(TB) leukemia = test system: HL-60(TB) leukemia
SK-MEL-5 melanoma = test system: SK-MEL-5 melanoma
OVCAR-4 ovarian = test system: OVCAR-4 ovarian
MDA-MB-435 = test system: MDA-MB-435
HCT-116 colon = test system: HCT-116 colon
MOLT-4 leukemia = test system: MOLT-4 leukemia
NCI-H226 lung = test system: NCI-H226 lung
A498 renal = test system: A498 renal
COLO 205 colon = test system: COLO 205 colon

N#Cc1cnc2ccc(-c3cnc4[nH]ncc4c3)cc2c1N1CCc2cc(F)c(Cl)cc21 gave a GI50 (MDA-MB-231 breast) of 0.302 µM, a TGI (MDA-MB-231 breast) of 6.7 µM and a GI50 (KM12 colon) of 0.4 µM. For the same molecule, the TGI (KM12 colon) was > 100 µM, the GI50 (NCI-H23 lung) was 0.406 µM and the TGI (NCI-H23 lung) was > 100 µM. The GI50 (CCRF-CEM leukemia) was 0.355 µM, the TGI (CCRF-CEM leukemia) was > 100 µM and the GI50 (NCI/ADR-RES ovarian) was 0.334 µM. The TGI (NCI/ADR-RES ovarian) was > 100 µM, the GI50 (CAKI-1 renal) was 0.25 µM and the TGI (CAKI-1 renal) was > 100 µM. The GI50 (SF-295 CNS) was 0.206 µM, the TGI (SF-295 CNS) was 0.599 µM and the GI50 (DU-145 prostate) was 0.372 µM. For the same molecule, the TGI (DU-145 prostate) was > 100 µM, the GI50 (SR leukemia) was 0.262 µM and the TGI (SR leukemia) was > 100 µM. For the same molecule, the GI50 (HS 578T breast) was 0.151 µM, the TGI (HS 578T breast) was 0.406 µM and the GI50 (MALME-3M melanoma) was 0.232 µM. For the same molecule, the TGI (MALME-3M melanoma) was 0.648 µM, the GI50 (SK-MEL-28 melanoma) was 0.33 µM and the TGI (SK-MEL-28 melanoma) was > 100 µM. For the same molecule, the GI50 (UACC-62 melanoma) was 0.25 µM, the GI50 (T-47D breast) was 0.214 µM and the TGI (T-47D breast) was > 100 µM. For the same molecule, the GI50 (SN12C renal) was 0.303 µM, the TGI (SN12C renal) was > 100 µM and the GI50 (SF-539 CNS) was 0.23 µM. For the same molecule, the TGI (SF-539 CNS) was 0.564 µM, the GI50 (M14 melanoma) was 0.322 µM and the TGI (M14 melanoma) was > 100 µM. For the same molecule, the GI50 (SNB-19 CNS) was 0.399 µM, the TGI (SNB-19 CNS) was > 35.4 µM and the GI50 (SK-OV-3 ovarian) was 0.214 µM. It also gave a TGI (SK-OV-3 ovarian) of 0.591 µM, a GI50 (NCI-H522 lung) of 0.254 µM and a TGI (NCI-H522 lung) of 0.725 µM. For the same molecule, the GI50 (K-562 leukemia) was 0.36 µM, the TGI (K-562 leukemia) was > 100 µM and the GI50 (786-0 renal) was 0.37 µM. The TGI (786-0 renal) was 5.12 µM, the GI50 (TK-10 renal) was 0.275 µM and the TGI (TK-10 renal) was > 36.2 µM. The GI50 (UACC-257 melanoma) was 0.312 µM, the TGI (UACC-257 melanoma) was > 100 µM and the GI50 (U251 CNS) was 0.373 µM. For the same molecule, the TGI (U251 CNS) was > 100 µM, the GI50 (EKVX NSCLC) was 0.309 µM and the TGI (EKVX NSCLC) was > 100 µM. For the same molecule, the GI50 (BT-549 breast) was 0.232 µM, the TGI (BT-549 breast) was 0.716 µM and the GI50 (SNB-75 CNS) was 0.145 µM. It also gave a TGI (SNB-75 CNS) of 0.428 µM, a GI50 (HOP-62 NSCLC) of 0.255 µM and a TGI (HOP-62 NSCLC) of 1.1 µM. For the same molecule, the GI50 (NCI-H460 lung) was 0.327 µM, the TGI (NCI-H460 lung) was > 100 µM and the GI50 (IGROV1 ovarian) was 0.177 µM. For the same molecule, the TGI (IGROV1 ovarian) was 0.544 µM, the GI50 (RXF 393 renal) was 0.171 µM and the TGI (RXF 393 renal) was 0.599 µM. The GI50 (SW-620 colon) was 0.389 µM, the TGI (SW-620 colon) was > 100 µM and the GI50 (A549 NSCLC) was 0.292 µM. The TGI (A549 NSCLC) was > 100 µM, the GI50 (OVCAR-8 ovarian) was 0.348 µM and the TGI (OVCAR-8 ovarian) was > 100 µM. The GI50 (OVCAR-5 ovarian) was 0.371 µM, the TGI (OVCAR-5 ovarian) was > 100 µM and the GI50 (RPMI-8226 leukemia) was 0.402 µM. The TGI (RPMI-8226 leukemia) was > 100 µM, the GI50 (ACHN renal) was 0.36 µM and the TGI (ACHN renal) was > 100 µM. The GI50 (SK-MEL-2 melanoma) was 0.222 µM, the TGI (SK-MEL-2 melanoma) was 0.518 µM and the GI50 (HOP-92 NSCLC) was 0.204 µM. The TGI (HOP-92 NSCLC) was 0.673 µM, the GI50 (SF-268 CNS) was 0.296 µM and the GI50 (HCT-15 colon) was 0.293 µM. The TGI (HCT-15 colon) was > 100 µM.

For Cc1ccc(NC(=O)c2ccc(CN3CCN(C)CC3)c(C(F)(F)F)c2)cc1Oc1ccc(-c2[nH]nc3ncnc(N)c23)cc1, the GI50 (KM12 colon) was 1.6 µM, the TGI (KM12 colon) was 3.67 µM and the GI50 (NCI/ADR-RES ovarian) was 3.08 µM. For the same molecule, the TGI (NCI/ADR-RES ovarian) was 12.9 µM, the GI50 (CAKI-1 renal) was 9.05 µM and the TGI (CAKI-1 renal) was 29.7 µM. For the same molecule, the GI50 (SF-295 CNS) was 8.51 µM, the TGI (SF-295 CNS) was 44.1 µM and the GI50 (HL-60(TB) leukemia) was 6.42 µM. It also gave a TGI (HL-60(TB) leukemia) of 78.5 µM, a GI50 (DU-145 prostate) of 1.83 µM and a TGI (DU-145 prostate) of 3.47 µM. For the same molecule, the GI50 (HS 578T breast) was 4.97 µM, the TGI (HS 578T breast) was 42.8 µM and the GI50 (SK-MEL-28 melanoma) was 1.74 µM. The TGI (SK-MEL-28 melanoma) was 3.39 µM, the GI50 (UACC-62 melanoma) was 2.02 µM and the TGI (UACC-62 melanoma) was 4.81 µM. It also gave a GI50 (SK-MEL-5 melanoma) of 1.67 µM, a TGI (SK-MEL-5 melanoma) of 3.09 µM and a GI50 (T-47D breast) of 2.61 µM. The TGI (T-47D breast) was 7.17 µM, the GI50 (SN12C renal) was 3.68 µM and the TGI (SN12C renal) was 18.7 µM. For the same molecule, the GI50 (SF-539 CNS) was 1.16 µM, the TGI (SF-539 CNS) was 2.5 µM and the GI50 (M14 melanoma) was 1.72 µM. It also gave a TGI (M14 melanoma) of 4.28 µM, a GI50 (SK-OV-3 ovarian) of 23.5 µM and a TGI (SK-OV-3 ovarian) of 56.5 µM. For the same molecule, the GI50 (NCI-H522 lung) was 3.04 µM, the TGI (NCI-H522 lung) was 9.35 µM and the GI50 (K-562 leukemia) was 0.713 µM. The TGI (K-562 leukemia) was > 100 µM, the GI50 (TK-10 renal) was 32.4 µM and the TGI (TK-10 renal) was 63.3 µM. The GI50 (UACC-257 melanoma) was 2.51 µM, the TGI (UACC-257 melanoma) was 5.8 µM and the GI50 (EKVX NSCLC) was 2.01 µM. For the same molecule, the TGI (EKVX NSCLC) was 4.19 µM, the GI50 (SNB-75 CNS) was 0.419 µM and the TGI (SNB-75 CNS) was 24 µM. The GI50 (HOP-62 NSCLC) was 2.26 µM, the TGI (HOP-62 NSCLC) was 5.14 µM and the GI50 (OVCAR-4 ovarian) was 18.7 µM. For the same molecule, the TGI (OVCAR-4 ovarian) was 42 µM, the GI50 (MDA-MB-435) was 1.61 µM and the TGI (MDA-MB-435) was 3.34 µM. It also gave a GI50 (NCI-H460 lung) of 1.84 µM, a TGI (NCI-H460 lung) of 3.59 µM and a GI50 (HCT-116 colon) of 1.89 µM. The TGI (HCT-116 colon) was 4.35 µM, the GI50 (MOLT-4 leukemia) was 2.03 µM and the TGI (MOLT-4 leukemia) was 7.31 µM. It also gave a GI50 (NCI-H226 lung) of 18 µM, a TGI (NCI-H226 lung) of 72.9 µM and a GI50 (A498 renal) of 18.4 µM. The TGI (A498 renal) was 42.9 µM, the GI50 (COLO 205 colon) was 7.29 µM and the TGI (COLO 205 colon) was 25.2 µM. The GI50 (SW-620 colon) was 1.97 µM, the TGI (SW-620 colon) was 3.69 µM and the GI50 (A549 NSCLC) was 2.18 µM. It also gave a TGI (A549 NSCLC) of 5.36 µM, a GI50 (OVCAR-5 ovarian) of 1.97 µM and a TGI (OVCAR-5 ovarian) of 3.66 µM. For the same molecule, the GI50 (ACHN renal) was 1.73 µM, the TGI (ACHN renal) was 3.18 µM and the GI50 (SK-MEL-2 melanoma) was 23.2 µM. It also gave a TGI (SK-MEL-2 melanoma) of 81.7 µM, a GI50 (SF-268 CNS) of 3.77 µM and a TGI (SF-268 CNS) of 30.2 µM. It also gave a GI50 (HCT-15 colon) of 1.57 µM and a TGI (HCT-15 colon) of 3.29 µM.
